Where “and” joins values, the source holds several entries; their conditions need not be identical. Equal values may be shown once.
Legend:
[1] = molecular target: CRISPR/Cas9 from Streptococcus pyogenes (SpyCas9) (Streptococcus pyogenes serotype M1, UniProt Q99ZW2); assay: cell-based;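 further: Cell-based reporter with a SpyCas9 target site placed in EGFP, where NHEJ repair of the cut restores the reading frame, read-out is the share of EGFP-positive cells, lowered by inhibitors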
Description: The CRISPR/Cas9 recognition site was inserted into the EGFP coding sequence so that the downstream sequence of the CRISPR/Cas9 recognition site was inside the box. The EGFP sequence was cleaved by Cas9 to produce double-strand breaks (DSBs), which would repair one of the two DNA repair mechanisms in the cell: non-homologous end joining (NHEJ) or homologous directed repair (HDR). The insertion or deletion introduced by NHEJ would restore the open reading frame of EGFP, thus activating EGFP fluorescence (FIG. 1).

SpyCas9 [2] = molecular target: T1, SpyCas9 (Streptococcus pyogenes serotype M1, UniProt Q99ZW2); assay: Inhibition of plasmid-expressed SpyCas9 editing of endogenous genes in HEK293 cells, T7E1 test; type: cell-based; settings: 10 μM compound
T1 construct: expressed in transfected cells; host or cells: HEK293
Description: (§1) HEK293 cells (10^5 cells/well) were seeded on a 24-well plate. 24 hours after inoculation, cells were transfected with 200 ng AAVS1-AS2 and 200 ng pST-Cas9 plasmid or 200 ng EMX1 and 200 ng pST-Cas9 plasmid in Opti-MEM medium. 6 hours after transfection, DMEM supplemented with 10% FBS and 10 μM drug (Compound 49) was used to replace Opti-MEM. The positive control for Cas9 activity was 200 ng AAVS1-AS2 and 200 ng pST-Cas9 plasmid or 200 ng EMX1 and 200 ng pST-Cas9 plasmid without drug. After the gene editing was completed, the cell genomic DNA was extracted, and the gene editing efficiency was tested by the T7E1 method (see Guschin, D. Y. et al. Methods Mol. Biol. 649, 247-256 (2010))).
The method of this example was the same as in Example 2.

SpyCas9 [3] = molecular target: T1, SpyCas9; assay: Specificity of SpyCas9-based gene editing (targeted/off-target editing), T7E1 test; type: cell-based; settings: HEK293 cells
Description: as §1
SpyCas9 was lipid transfected into HEK293 cells or nuclear transfected into K562 cells to determine the effect of compound 49 on the specificity of SpyCas9 in multiple cell lines on different genes. The inhibitor was added to the culture 6 hours after transfection. The detection method is the same as in Example 2.

[4] = molecular target: T2, Staphylococcus aureus Cas9 (SaCas9) (Staphylococcus aureus, UniProt J7RUA5); assay: Inhibition of plasmid-expressed SaCas9 gene editing in cell culture, T7E1 test; type: cell-based; settings: plasmid containing SaCas9; group without drug 14%
T2 construct: expressed in transfected cells; host or cells: HEK293 (method similar to 2.1)
Description: as §1
The method of this example was similar to 2.1, except that pST-Cas9 was replaced with a plasmid containing SaCas9. The detection method was the same as in Example 2.

base editing system = assay: Regulation of base editing in HEK293T cells, deep sequencing; type: cell-based
[5] = humans; cited from earlier work

T1 sequence (Q99ZW2 whole entry): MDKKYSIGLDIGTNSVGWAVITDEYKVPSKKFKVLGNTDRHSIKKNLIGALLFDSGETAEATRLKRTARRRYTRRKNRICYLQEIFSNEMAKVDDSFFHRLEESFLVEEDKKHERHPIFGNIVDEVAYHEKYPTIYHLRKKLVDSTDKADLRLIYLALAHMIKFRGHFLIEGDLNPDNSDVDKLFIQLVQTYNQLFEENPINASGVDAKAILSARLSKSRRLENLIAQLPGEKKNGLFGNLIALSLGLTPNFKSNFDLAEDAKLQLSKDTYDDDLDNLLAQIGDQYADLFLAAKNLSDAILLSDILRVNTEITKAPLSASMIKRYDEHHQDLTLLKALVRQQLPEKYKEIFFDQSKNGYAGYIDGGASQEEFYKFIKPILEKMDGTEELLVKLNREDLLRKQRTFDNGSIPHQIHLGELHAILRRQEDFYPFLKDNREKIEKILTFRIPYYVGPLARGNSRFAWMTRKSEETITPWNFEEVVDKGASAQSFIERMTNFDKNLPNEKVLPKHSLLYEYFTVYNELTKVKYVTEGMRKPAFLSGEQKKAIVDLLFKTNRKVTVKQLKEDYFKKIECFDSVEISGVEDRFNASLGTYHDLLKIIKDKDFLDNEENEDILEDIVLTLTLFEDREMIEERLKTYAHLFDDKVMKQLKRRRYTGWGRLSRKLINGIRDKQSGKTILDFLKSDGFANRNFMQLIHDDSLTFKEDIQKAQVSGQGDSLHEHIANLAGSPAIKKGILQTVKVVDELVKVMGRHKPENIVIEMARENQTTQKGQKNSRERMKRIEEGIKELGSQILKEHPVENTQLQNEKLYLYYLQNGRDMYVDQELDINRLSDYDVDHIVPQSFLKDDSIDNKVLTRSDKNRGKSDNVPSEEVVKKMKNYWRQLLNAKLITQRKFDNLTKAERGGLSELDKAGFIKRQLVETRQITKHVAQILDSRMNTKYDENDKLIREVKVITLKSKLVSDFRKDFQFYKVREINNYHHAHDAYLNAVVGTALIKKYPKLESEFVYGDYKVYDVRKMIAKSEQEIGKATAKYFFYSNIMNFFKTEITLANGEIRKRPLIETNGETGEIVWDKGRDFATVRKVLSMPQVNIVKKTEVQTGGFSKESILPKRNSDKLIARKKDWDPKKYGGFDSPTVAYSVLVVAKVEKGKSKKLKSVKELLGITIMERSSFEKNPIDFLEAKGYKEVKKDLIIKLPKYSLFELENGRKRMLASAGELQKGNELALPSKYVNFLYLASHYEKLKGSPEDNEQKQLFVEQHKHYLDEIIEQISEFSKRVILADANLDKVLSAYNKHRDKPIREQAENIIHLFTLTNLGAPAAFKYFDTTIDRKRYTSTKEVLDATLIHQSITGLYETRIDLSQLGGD
T2 sequence (J7RUA5 whole entry): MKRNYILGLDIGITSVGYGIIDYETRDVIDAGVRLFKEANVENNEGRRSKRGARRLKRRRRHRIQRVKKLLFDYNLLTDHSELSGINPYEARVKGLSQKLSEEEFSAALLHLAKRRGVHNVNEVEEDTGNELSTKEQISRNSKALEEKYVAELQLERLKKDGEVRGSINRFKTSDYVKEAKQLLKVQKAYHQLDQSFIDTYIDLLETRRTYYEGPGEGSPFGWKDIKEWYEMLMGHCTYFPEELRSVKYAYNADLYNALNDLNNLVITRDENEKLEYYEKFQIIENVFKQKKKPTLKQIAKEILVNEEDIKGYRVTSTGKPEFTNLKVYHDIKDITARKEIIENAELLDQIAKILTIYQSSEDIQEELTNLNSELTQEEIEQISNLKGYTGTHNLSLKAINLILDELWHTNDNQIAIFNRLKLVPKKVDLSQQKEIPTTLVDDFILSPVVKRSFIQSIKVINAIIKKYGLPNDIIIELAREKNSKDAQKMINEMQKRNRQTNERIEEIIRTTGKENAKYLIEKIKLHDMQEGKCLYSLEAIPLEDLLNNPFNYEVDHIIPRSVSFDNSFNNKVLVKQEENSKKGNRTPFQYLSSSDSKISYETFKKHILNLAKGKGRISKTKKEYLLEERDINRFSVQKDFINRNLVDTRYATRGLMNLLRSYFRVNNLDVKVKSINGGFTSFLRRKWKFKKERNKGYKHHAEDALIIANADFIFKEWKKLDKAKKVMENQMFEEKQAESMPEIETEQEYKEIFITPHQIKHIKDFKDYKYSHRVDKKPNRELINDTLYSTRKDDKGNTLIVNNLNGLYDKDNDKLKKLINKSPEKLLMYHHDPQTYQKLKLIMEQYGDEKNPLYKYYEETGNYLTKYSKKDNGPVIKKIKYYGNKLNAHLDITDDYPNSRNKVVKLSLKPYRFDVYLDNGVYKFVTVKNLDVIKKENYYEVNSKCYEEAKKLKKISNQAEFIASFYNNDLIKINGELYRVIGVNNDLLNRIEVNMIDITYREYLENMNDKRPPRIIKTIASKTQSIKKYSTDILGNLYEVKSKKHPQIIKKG
CRISPR/Cas9 from Streptococcus pyogenes (SpyCas9), sequence (Q99ZW2 whole entry): as the sequence (Q99ZW2 whole entry) above

O=C(/C=C\n1cnc(-c2cc(C(F)(F)F)cc(C(F)(F)F)c2)n1)NNc1cnccn1 [Compound 49]
IC50 [1]: < 1000 nM
gene modification rate (SpyCas9 [2]; HEK293 cells transfected with AAVS1-AS2 and pST-Cas9 plasmids, no-drug group 22.4% and 35.1%): < 1%
gene modification rate (SpyCas9 [2]; HEK293 cells transfected with EMX1 and pST-Cas9 plasmids, no-drug group 26.5% and 27.9%): 5.6% and 3.8%
ratio of the number of scheduled gene editing at specific sites to the number of scheduled gene editing at non-specific sites (SpyCas9 [3]; after compound added, 2.4 when no compound was added): 7
raise of the specific/non-specific site editing ratio (SpyCas9 [3]; with compound versus no compound): 2.9 fold
gene modification rate [4]: < 0.5%
decrease rate of C→T conversion frequency (base editing system; sg47, C on 5th site, 500 nM compound): 50%
C→T conversion frequency (base editing system; sg47, C on 5th site, 500 nM compound, 18% without compound): 9%
indel frequency (base editing system; sg48, 500 nM compound): reduced overall
C→T conversion inhibition efficiency (base editing system; sgMSSK1-5, C on 5th site in the window, 500 nM compound): 30%
C→T conversion inhibition efficiency (base editing system; sgMSSK1-5, C on 11th site out-of-window, 500 nM compound): 50%
safety in clinical testing [5]: safe for humans

Source: patent US12534742B2, “Compound for regulating gene editing efficiency and application thereof” (Shanghai Institute of Organic Chemistry, Chinese Academy of …, priority 2018, dated 2026)
